# Experimental data published in patent publication US7358044B2, “Prophylactic and therapeutic benefits of a new class of immune stimulating peptides” (priority 2003, dated 2008).
# Marks after values point to notes of the source that are not given here.
# Assays:
# clinical mastitis = assay: Clinical mastitis, ICPF versus Polyflex; assay type: in vivo, bovine
# Method: Nineteen animals were showing signs of clinical mastitis, i.e. abnormal milk appearance, painful teat, etc. These animals were randomly assigned to either a test or a control group. The control group animals (n=10) were treated according to the dairy's normal practice for treatment of clinical cases of mastitis, i.e. intramuscular injection of Polyflex brand (Fort Dodge Animal Health) of ampicillin (5 mg/lb×3 days). […] The SCC's for the treatment and control animals were compared 30 days later. The means of the pre-treatment test and control groups were determined to not be statistically different and neither were the standard deviations of the two groups statistically different. […] Two animals in the test group were refractory to treatment.
# J774A.1 macrophages = assay: Macrophage activation, NO production (Greiss reagent); assay type: cell-based
# Method: J774A.1 macrophages (ATCC TIB67, 5×10^4 viable cells/well) were cultured in Dulbecco's Modified Eagle Medium (DMEM, high glucose)+10% FBS+100 U/ml penicillin+100 μg/ml streptomycin for 24 hr prior to treatment addition. NO production was determined colorimetrically using the Greiss reagent 24 hr after experimental treatments. […] Statistical significance was analyzed by comparison of mean values using the Student's t test (unpaired, two-tailed).
# NK cells = assay: NK cell activity of splenocytes from treated mice, chromium-release assay; assay type: in vivo
# Description: The results are depicted in Table 2.
# [1] = 0.25 ml i.p. (5 mg ICPF or 20 μg Poly I:C), spleens harvested the following day, mean n = 3 with standard error
compound,measurement,setting,value
"CC1(C)S[C@@H]2[C@H](NC(=O)[C@H](N)c3ccccc3)C(=O)N2[C@H]1C(=O)O [Polyflex, ampicillin]",animals that showed improvement,"clinical mastitis; 30 days, Polyflex 5 mg/lb x 3 days i.m. (n=10)",one
same,average somatic cell count for the group increased by,"clinical mastitis; Polyflex 5 mg/lb x 3 days i.m., n=10, test period",7%
ICPF-peptide: Purified peptide from ICPF (RSVSLSYRF),induction of NO in combination with LPS,J774A.1 macrophages; ICPF 100 μg/ml or ICPF-peptide 10 μg/ml with LPS 0-10 μg/ml in the absence of IFN-γ,unable to induce NO
same,amount of NO induced by the minimal stimulatory dose of LPS + IFN-γ,"J774A.1 macrophages; ICPF-peptide 0.1-100 μg/ml, LPS 10 ng/ml + IFN-γ 1-5 U/ml",did not modulate the amount of NO
same,dose of LPS required to induce NO,"J774A.1 macrophages; IFN-γ stimulated macrophages, ICPF 100 μg/ml, ICPF-peptide 10 μg/ml",Neither ICPF (100 μg/ml) nor ICPF-peptide (10 μg/ml) altered the dose of LPS required to induce NO
same,dose of IFN-γ required to induce NO,"J774A.1 macrophages; LPS-stimulated macrophages, ICPF 100 μg/ml, ICPF-peptide 10 μg/ml",Neither ICPF (100 μg/ml) nor ICPF-peptide (10 μg/ml) altered the dose of IFN-γ required to induce NO
same,induction of NO,"J774A.1 macrophages; purified peptide 0.1-100 μg/ml, absence or presence of IFN-γ",failed to induce NO
Poly I:C,Percent 51Cr released at E:T ratios 50:1,NK cells; [1],19.1 ± 1.0^b Percent
same,Percent 51Cr released at E:T ratios 100:1,NK cells; [1],31.5 ± 1.1^b Percent
same,Percent 51Cr released at E:T ratios 200:1,NK cells; [1],35.3 ± 1.6^b Percent
same,direct activation of NK cells,"NK cells; naive mice, E:T ratios of 200:1, 100:1, and 50:1",induced activation of NK cells
